Several values for one entry are separate records, joined by “and”; a condition that tells them apart may be missing. Equal values may be shown once.
System: GEMS receptors with CBPA11 (BclXL–LD3 and BclXLhigh variants), STAT3-driven SEAP in HEK293T cells
Assay: GEMS SEAP reporter assay, CBPA11 (BclXLhigh, LD3-v and BclXL-v variants) with A-1155463
Type: cell-based
Set-up: key to Raw data (SEAP) / SEAP, replicate values / Raw data of Figure 5b / Raw data Figure 5e / Raw data of Independent repeat of CBPA11-v1 vs CBPA11-v1-LD3v3 / Raw data of Independent repeat of CBPA11-v3 vs CBPA11-v3-LD3v3 / Raw data of Figure 5b, CBPA11-v1-LD3v3 (SEAP reporter raw value, single replicate) / Raw data of Figure 5b, CBPA11-v1 (SEAP reporter raw value, single replicate): SEAP activity in U/L in culture supernatant
From the text: To rationally design a CBP responding to a chemical input, we used BclXL as the druglow receptor, LD3 as the designed binder and a designed BclXL variant as the drughigh receptor (referred to as BclXLhigh) to construct a CBP responsive to BclXL inhibitors (Fig. 4a). To design BclXLhigh, we used a multistate design computational protocol described elsewhere[26] […] Thus, BclXLhigh-v(1–3) were chosen as the functional drughigh receptors, resulting in three A-1155463-controlled CBPs (referred to as CBPA11-v(1–3)) (Fig. 4c–e).
HEK293T cells were seeded in a 96-well plate 24 h before transfection. The transfection mix in each well consisted of 3 ng of constitutive human CMV promoter driven mammalian STAT3 expression vector (PhCMV-STAT3-pA), 30 ng of STAT3-induced reporter expression (OStat3-PhCMVmin-SEAP-pA) and 50 ng of expression vectors for each GEMS receptor chain (PSV40-IgK-(drughigh receptor)-EpoRm-IL-6RBm-pA and PSV40-IgK-(druglow receptor-GGGGSX3-LD3)-EpoRm-IL-6RBm-pA). For the specific drughigh receptor and druglow receptor used in the different cellular assays, they are indicated as wild type or with mutations. Then, plasmid DNA was mixed with 50 μl opti-MEM (Thermo Fisher) and 600 ng of polyethyleneimine (Polysciences, catalog no. 24765-1). For drug treatment experiments, drugs were added 12 h post-transfection and incubated with cells for 24 h before the SEAP reporter detection assay.
SEAP activity (U l^−1) in cell culture supernatants was quantified by kinetic measurements at 405 nm (1 minute per measurement for 30 cycles) of absorbance increase due to phosphatase-mediated hydrolysis of para-nitrophenyl phosphate (pNPP).
Binding affinities of SPR drug competition assays were calculated using three-parameter nonlinear regression in GraphPad Prism (v.8.3.0). Representative data of cell assays are presented as individual values and mean values (bars). n = 3 refers to biological replicates. All IC50 or EC50 values of cell assays reported were calculated using four-parameter nonlinear regression ± s.d. Bandpass features of cutoff concentrations and Bandwidth90% were estimated based on the curve fitted using bell-shaped curve nonlinear regression in GraphPad Prism (v.8.3.0). […]
Supplementary Figure 4: Design, screening and validation of BclXLhigh variants. a) Screening of BclXLhigh variants in the GEMS platform. […]
Dissociation constant measurement of BclXLhigh-v(1-3) and LD3. Equilibrium curves are fitted using […]
BclXLhigh-v1 (purple), BclXLhigh-v2 (blue), […]
a) Bcl2high-based bandpass filter designs were developed and to respond to different concentrations of […]
corresponding inhibitor. c) Screening of Bcl2high-based bandpass filter variants in the GEMS platform.
The designed binder LD3 was fused to the druglow-receptor (PSV40-IgK-Bcl2-LD3-EpoRm-IL-6RBm-pA) in one EpoR chain and Bcl2high variants with the insensitive Bcl2 (iBcl2) as control in the other EpoR chain (PSV40-IgK-Bcl2high-EpoRm-IL-6RBm-pA). HEK293T cells were transfected with indicated […]
the mean of six biological replicates ± s.d., overlaid with a scatter dot plot of the original data points.
(1 picture or pasted object on this page, not shown here)
Supplementary Figure 6: Binding affinities and drug resistances of Bcl2high-v(2,4,5) assessed by […]
a) Measurement of dissociation constants for Bcl2high-v(2,4,5) and LD3 interactions. Equilibrium curves […]
Bcl2high-v(2,4,5) measured by SPR. 5 μM of Bcl2 or indicated variants were mixed with 10 μM of […]
Bcl2high-v2 (red), Bcl2high-v4
Supplementary Figure 7: Screening of LD3 variants in CBPA11-v(1-3) and raw data of CBPA11-v(1,3) with LD3-v3 variant. a-c) Screening of LD3 and LD3-v(1-3) variants in complex with BclXL for more sensitive CBPA11-v1 (a), CBPA11-v2 (b), CBPA11-v3 (c) in the GEMS platform. The LD3 variants replaced the role of LD3 (PSV40-IgK-BclXL-LD3-v(1-3)-EpoRm-IL-6RBm-pA) in one EpoR chain and BclXLhigh-v(1-3) in the other EpoR chain (PSV40-IgK-BclXLhigh-V(1-3)-EpoRm-IL-6RBm-pA). HEK293T cells were transfected with […]

## CN(C)CC#Cc1ccc(OCCCc2sc(N3CCc4cccc(C(=O)Nc5nc6ccccc6s5)c4C3)nc2C(=O)O)c(F)c1 [A-1155463]
A-1155463 10000 nM, construct CBPA11-v1-LD3v3, three replicate columns
  Raw data of Figure 5b, CBPA11-v1-LD3v3 (SEAP reporter raw value, single replicate): 23.9254 and 24.8005 and 21.4423
A-1155463 10000 nM, construct CBPA11-v1, three replicate columns
  Raw data of Figure 5b, CBPA11-v1 (SEAP reporter raw value, single replicate): 69.4522 and 75.5808 and 84.1281
CBPA11-v1, A-1155463 0.01 nM
  Raw data of Independent repeat of CBPA11-v1 vs CBPA11-v1-LD3v3: 21.5154 and 21.2395 and 24.0629
CBPA11-v1, A-1155463 1 nM
  Normalized data Figure 5e: 6.4824 and 7.053 and 8.837
  Normalized data of Figure 5b: 1.402 and 1.595 and 1.731
  Raw data of Figure 5b: 11.9307 and 13.3631 and 14.4518
  Raw data of Independent repeat of CBPA11-v1 vs CBPA11-v1-LD3v3: 71.2806 and 66.4229 and 63.7452
CBPA11-v1, A-1155463 3.16 nM
  Raw data of Independent repeat of CBPA11-v1 vs CBPA11-v1-LD3v3: 80.0965 and 82.8427 and 80.4448
CBPA11-v1, A-1155463 3.18 nM
  Normalized data Figure 5e: 7.202 and 10.0096 and 11.7189
CBPA11-v1, A-1155463 10 nM
  Normalized data Figure 5e: 46.8388 and 51.1661 and 51.2149
  Normalized data of Figure 5b: 14.5535 and 13.2638 and 13.0086
  Raw data of Figure 5b: 123.839 and 111.135 and 108.599
  Raw data of Independent repeat of CBPA11-v1 vs CBPA11-v1-LD3v3: 462.474 and 463.658 and 418.386
CBPA11-v1, A-1155463 31.6 nM
  Raw data of Independent repeat of CBPA11-v1 vs CBPA11-v1-LD3v3: 571.289 and 570.216 and 457.441
CBPA11-v1, A-1155463 31.8 nM
  Normalized data Figure 5e: 63.7218 and 71.158 and 71.088
  Normalized data of Figure 5b: 45.8074 and 33.2331 and 44.7698
  Raw data of Figure 5b: 389.784 and 278.454 and 373.749
CBPA11-v1, A-1155463 100 nM
  Normalized data Figure 5e: 98.9083 and 100
  Normalized data of Figure 5b: 66.3164 and 72.6195 and 72.7718
  Raw data of Figure 5b: 564.299 and 608.466 and 607.516
  Raw data of Independent repeat of CBPA11-v1 vs CBPA11-v1-LD3v3: 770.33 and 757.162 and 752.74
CBPA11-v1, A-1155463 316 nM
  Raw data of Independent repeat of CBPA11-v1 vs CBPA11-v1-LD3v3: 692.583 and 694.97 and 762.999
CBPA11-v1, A-1155463 318 nM
  Normalized data Figure 5e: 100 and 89.6838 and 88.8002
  Normalized data of Figure 5b: 100
  Raw data of Figure 5b: 850.92 and 837.883 and 834.824
CBPA11-v1, A-1155463 1000 nM
  Normalized data Figure 5e: 87.8736 and 79.7319 and 71.766
  Normalized data of Figure 5b: 69.8009 and 76.8483 and 84.4115
  Raw data of Figure 5b: 593.95 and 643.898 and 704.687
  Raw data of Independent repeat of CBPA11-v1 vs CBPA11-v1-LD3v3: 543.865 and 540.678 and 577.914
CBPA11-v1, A-1155463 3160 nM
  Raw data of Independent repeat of CBPA11-v1 vs CBPA11-v1-LD3v3: 413.782 and 413.648 and 344.2
CBPA11-v1, A-1155463 3180 nM
  Normalized data Figure 5e: 51.7606 and 52.3661 and 51.7462
  Normalized data of Figure 5b: 53.3499 and 60.9077 and 57.5176
  Raw data of Figure 5b: 453.965 and 510.335 and 480.171
CBPA11-v1, A-1155463 10000 nM
  Normalized data Figure 5e: 19.9955 and 19.9571 and 22.5422
  Normalized data of Figure 5b: 33.8321 and 33.8547 and 35.5742
  Raw data of Figure 5b: 287.884 and 283.663 and 296.982
  Raw data of Independent repeat of CBPA11-v1 vs CBPA11-v1-LD3v3: 129.42 and 154.739 and 117.07
CBPA11-v1-BclXLv2, A-1155463 1 nM
  Normalized data Figure 5e: 21.782 and 18.7434 and 19.0174
CBPA11-v1-BclXLv2, A-1155463 3.18 nM
  Normalized data Figure 5e: 30.7821 and 38.1789 and 36.4445
CBPA11-v1-BclXLv2, A-1155463 10 nM
  Normalized data Figure 5e: 85.4791 and 79.6848 and 85.0591
CBPA11-v1-BclXLv2, A-1155463 31.8 nM
  Normalized data Figure 5e: 84.8971 and 95.7911 and 86.6879
CBPA11-v1-BclXLv2, A-1155463 100 nM
  Normalized data Figure 5e: 100 and 90.6768
CBPA11-v1-BclXLv2, A-1155463 318 nM
  Normalized data Figure 5e: 91.2979 and 98.815 and 100
CBPA11-v1-BclXLv2, A-1155463 1000 nM
  Normalized data Figure 5e: 86.9949 and 91.0394 and 83.6084
CBPA11-v1-BclXLv2, A-1155463 3180 nM
  Normalized data Figure 5e: 69.3324 and 72.9533 and 70.3736
CBPA11-v1-BclXLv2, A-1155463 10000 nM
  Normalized data Figure 5e: 38.0946 and 36.2941 and 35.5843
CBPA11-v1-LD3v3, A-1155463 0.01 nM
  Raw data of Independent repeat of CBPA11-v1 vs CBPA11-v1-LD3v3: 17.2788 and 15.3201 and 15.4842
